Test results reported in paper PMC9387934, “Randomized single oral dose phase 1 study of safety, tolerability, and pharmacokinetics of Iminosugar UV-4 Hydrochloride (UV-4B) in healthy subjects” (PLoS Neglected Tropical Diseases, 2022).
Where a name gives a salt, the structure may show the parent alone.

Key:
[1] = Phase 1a single ascending dose study: UV-4 in pooled urine, urinary recovery and renal clearance; type: in vivo, human; conditions: urine; for Cumulative Amount Ae(0-last): corresponds to Ae(0-48); for Cumulative Percent fe(0-last): corresponds to fe(0-48)
Protocol: Serial blood samples were collected at pre-dose (0 hour) and 0.5, 1, 1.5, 2, 2.5, 3, 4, 6, 9, 12, 18, 24, 36, and 48 hours post-dose for assessment of UV-4 concentrations in plasma. Pooled urine samples were collected at pre-dose (-12 to 0 hour) and from 0 to 6, 6 to 12, 12 to 24, and 24 to 48 hours post-dose for assessment of UV-4 concentrations in urine. Plasma and urine concentrations of UV-4 were determined by means of validated, sensitive, and specific high-performance liquid chromatography/tandem mass spectrometric (LC-MS/MS) assays. UV-4 plasma and urine concentrations and PK parameters were listed and summarized by dose, as appropriate. Only the 48 subjects who received active investigational product were included in the PK analysis population.
8.2.3 Specimen Preparation, Handling, and Shipping
8.2.3.1 Instructions for Specimen Preparation, Handling, and Storage
The collected PK blood samples (2 mL) will be placed on ice after blood draw, and within 1 hour centrifuged at room temperature at approximately 3000 revolutions per minute for 15 minutes. Plasma will then be harvested and split into 4 aliquots of approximately 250 μ L and stored frozen at -20°C until shipped.
Urine samples (approximately 10 mL) for determination of UV-4 concentrations in urine will be taken from the total volume provided during each collection period. The total volume of each urine collection will be recorded along with the start/stop time for each urine collection interval.
Analysis of plasma and urine for UV-4 will be performed by the qualified bioanalytical laboratory, Quintiles Bioservices, Inc., Ithaca, New York 14950. Instructions for the proper preparation, handling, storage and shipping of specimens will be provided separately in a study-specific laboratory manual (i.e., Biopacket).
8.2.3.2 Specimen Shipment […]
The following single-dose urine PK parameters will be estimated from the UV-4 urine concentration-time data collected, as appropriate:
Ae Amount of UV-4 excreted in urine unchanged, calculated for each collection interval and cumulatively across intervals fe Fraction of UV-4 excreted in urine unchanged, calculated for each collection interval and cumulatively across intervals […]
Additional UV-4 PK parameters may be calculated at the discretion of the […]
Plasma concentrations and plasma and urine PK parameters will be summarized by treatment using descriptive statistics, as appropriate. Figures for the arithmetic mean (and SD) concentration-time data will be presented for all doses on both a linear and semi-logarithmic scale. Individual concentration-time data will be graphically presented on linear and semi-logarithmic scales. Scatter plots of individual and geometric mean PK parameters versus dose will be presented. Additional graphical presentations of PK data may be added at the discretion of the PK analyst.
Dose proportionality of Cmax, AUC(0-last), and AUC(0-inf) will be assessed graphically and statistically using the power model approach with the logarithm of PK parameters AUC(0-inf) and Cmax as the dependent variables and the logarithm of the dose as the independent variable: ([AUC(0-inf), AUC(0-last), or Cmax]=α *doseβ).
11.4.7 Deviation from Original Analysis Plan
Deviations from the formal statistical analysis plan will be noted in the final Clinical Study

[2] = parameters: method as in Investigator’s Brochure (IB); conditions: dogs, ref Investigator’s Brochure (IB), cited from earlier work
[3] = Cohort 4, 90 mg single oral dose, Median
[4] = Cohort 5, 180 mg single oral dose, Ar Mean
[5] = Cohort 5, 180 mg single oral dose, Median
[6] = Cohort 6, 360 mg single oral dose, Ar Mean
[7] = Cohort 6, 360 mg single oral dose, Median
[8] = Cohort 7, 720 mg single oral dose, Ar Mean
[9] = Cohort 7, 720 mg single oral dose, Median
[10] = Cohort 8, 1000 mg single oral dose, Ar Mean
[11] = Cohort 8, 1000 mg single oral dose, Median

In the case of `COCCCCCCCCCN1C[C@H](O)[C@@H](O)[C@H](O)[C@H]1CO` [UV-4B, N-(9’-methoxynonyl)-1-deoxynojirimycin hydrochloride], the “By-Interval Amount Ae(24-48)” value [1, 3] is reported as 1.50 mg, the “By-Interval Percent fe(0-6)” value [1, 3] is reported as 43.6% and the “By-Interval Percent fe(6-12)” value [1, 3] is reported as 7.07%. The “By-Interval Percent fe(12-24)” value [1, 3] was 4.46%, the “By-Interval Percent fe(24-48)” value [1, 3] was 1.66% and the “Cumulative Amount Ae(0-12)” value [1, 3] was 44.2 mg. For the same compound, the “Cumulative Amount Ae(0-24)” value [1, 3] was 47.8 mg, the “Cumulative Percent fe(0-12)” value [1, 3] was 49.1% and the “Cumulative Percent fe(0-24)” value [1, 3] was 53.1%. The “Cumulative Amount Ae(0-last)” value [1, 3] was 49.7 mg, the “Cumulative Percent fe(0-last)” value [1, 3] was 55.3% and the “By-Interval Amount Ae(0-6)” value [1, 4] was 77.5 mg. The “By-Interval Amount Ae(6-12)” value [1, 4] was 12.1 mg, the “By-Interval Amount Ae(12-24)” value [1, 4] was 6.06 mg and the “By-Interval Amount Ae(24-48)” value [1, 4] was 2.43 mg. The “By-Interval Percent fe(0-6)” value [1, 4] was 43.0%, the “By-Interval Percent fe(6-12)” value [1, 4] was 6.74% and the “By-Interval Percent fe(12-24)” value [1, 4] was 3.37%. For the same compound, the “By-Interval Percent fe(24-48)” value [1, 4] was 1.35%, the “Cumulative Amount Ae(0-12)” value [1, 4] was 89.6 mg and the “Cumulative Amount Ae(0-24)” value [1, 4] was 95.7 mg. For the same compound, the “Cumulative Percent fe(0-12)” value [1, 4] was 49.8%, the “Cumulative Percent fe(0-24)” value [1, 4] was 53.1% and the “Cumulative Amount Ae(0-last)” value [1, 4] was 97.9 mg. The “Cumulative Percent fe(0-last)” value [1, 4] was 54.5%, the “By-Interval Amount Ae(0-6)” value [1, 5] was 77.7 mg and the “By-Interval Amount Ae(6-12)” value [1, 5] was 12.1 mg. The “By-Interval Amount Ae(12-24)” value [1, 5] was 5.76 mg, the “By-Interval Amount Ae(24-48)” value [1, 5] was 2.20 mg and the “By-Interval Percent fe(0-6)” value [1, 5] was 43.2%. For the same compound, the “By-Interval Percent fe(6-12)” value [1, 5] was 6.72%, the “By-Interval Percent fe(12-24)” value [1, 5] was 3.20% and the “By-Interval Percent fe(24-48)” value [1, 5] was 1.22%. For the same compound, the “Cumulative Amount Ae(0-12)” value [1, 5] was 89.5 mg, the “Cumulative Amount Ae(0-24)” value [1, 5] was 96.8 mg and the “Cumulative Percent fe(0-12)” value [1, 5] was 49.7%. The “Cumulative Percent fe(0-24)” value [1, 5] was 53.8%, the “Cumulative Amount Ae(0-last)” value [1, 5] was 99.8 mg and the “Cumulative Percent fe(0-last)” value [1, 5] was 55.6%. The “By-Interval Amount Ae(0-6)” value [1, 6] was 159 mg, the “By-Interval Amount Ae(6-12)” value [1, 6] was 19.1 mg and the “By-Interval Amount Ae(12-24)” value [1, 6] was 7.09 mg. The “By-Interval Amount Ae(24-48)” value [1, 6] was 2.83 mg, the “By-Interval Percent fe(0-6)” value [1, 6] was 44.2% and the “By-Interval Percent fe(6-12)” value [1, 6] was 5.32%. For the same compound, the “By-Interval Percent fe(12-24)” value [1, 6] was 1.97%, the “By-Interval Percent fe(24-48)” value [1, 6] was 0.787% and the “Cumulative Amount Ae(0-12)” value [1, 6] was 178 mg. The “Cumulative Amount Ae(0-24)” value [1, 6] was 185 mg, the “Cumulative Percent fe(0-12)” value [1, 6] was 49.5% and the “Cumulative Percent fe(0-24)” value [1, 6] was 51.5%. The “Cumulative Amount Ae(0-last)” value [1, 6] was 188 mg, the “Cumulative Percent fe(0-last)” value [1, 6] was 52.3% and the “By-Interval Amount Ae(0-6)” value [1, 7] was 153 mg. The “By-Interval Amount Ae(6-12)” value [1, 7] was 20.0 mg, the “By-Interval Amount Ae(12-24)” value [1, 7] was 6.73 mg and the “By-Interval Amount Ae(24-48)” value [1, 7] was 2.89 mg. For the same compound, the “By-Interval Percent fe(0-6)” value [1, 7] was 42.4%, the “By-Interval Percent fe(6-12)” value [1, 7] was 5.55% and the “By-Interval Percent fe(12-24)” value [1, 7] was 1.87%. For the same compound, the “By-Interval Percent fe(24-48)” value [1, 7] was 0.803%, the “Cumulative Amount Ae(0-12)” value [1, 7] was 172 mg and the “Cumulative Amount Ae(0-24)” value [1, 7] was 178 mg. For the same compound, the “Cumulative Percent fe(0-12)” value [1, 7] was 47.8%, the “Cumulative Percent fe(0-24)” value [1, 7] was 49.5% and the “Cumulative Amount Ae(0-last)” value [1, 7] was 182 mg. For the same compound, the “Cumulative Percent fe(0-last)” value [1, 7] was 50.4%, the “By-Interval Amount Ae(0-6)” value [1, 8] was 301 mg and the “By-Interval Amount Ae(6-12)” value [1, 8] was 42.5 mg. For the same compound, the “By-Interval Amount Ae(12-24)” value [1, 8] was 11.7 mg, the “By-Interval Amount Ae(24-48)” value [1, 8] was 4.09 mg and the “By-Interval Percent fe(0-6)” value [1, 8] was 41.8%. The “By-Interval Percent fe(6-12)” value [1, 8] was 5.90%, the “By-Interval Percent fe(12-24)” value [1, 8] was 1.63% and the “By-Interval Percent fe(24-48)” value [1, 8] was 0.569%. The “Cumulative Amount Ae(0-12)” value [1, 8] was 344 mg, the “Cumulative Amount Ae(0-24)” value [1, 8] was 355 mg and the “Cumulative Percent fe(0-12)” value [1, 8] was 47.7%. The “Cumulative Percent fe(0-24)” value [1, 8] was 49.4%, the “Cumulative Amount Ae(0-last)” value [1, 8] was 360 mg and the “Cumulative Percent fe(0-last)” value [1, 8] was 49.9%. For the same compound, the “By-Interval Amount Ae(0-6)” value [1, 9] was 285 mg, the “By-Interval Amount Ae(6-12)” value [1, 9] was 45.7 mg and the “By-Interval Amount Ae(12-24)” value [1, 9] was 12.1 mg. The “By-Interval Amount Ae(24-48)” value [1, 9] was 4.53 mg, the “By-Interval Percent fe(0-6)” value [1, 9] was 39.6% and the “By-Interval Percent fe(6-12)” value [1, 9] was 6.34%. For the same compound, the “By-Interval Percent fe(12-24)” value [1, 9] was 1.68%, the “By-Interval Percent fe(24-48)” value [1, 9] was 0.630% and the “Cumulative Amount Ae(0-12)” value [1, 9] was 332 mg. The “Cumulative Amount Ae(0-24)” value [1, 9] was 345 mg, the “Cumulative Percent fe(0-12)” value [1, 9] was 46.1% and the “Cumulative Percent fe(0-24)” value [1, 9] was 47.9%. For the same compound, the “Cumulative Amount Ae(0-last)” value [1, 9] was 350 mg, the “Cumulative Percent fe(0-last)” value [1, 9] was 48.5% and the “By-Interval Amount Ae(0-6)” value [1, 10] was 428 mg. For the same compound, the “By-Interval Amount Ae(6-12)” value [1, 10] was 53.7 mg, the “By-Interval Amount Ae(12-24)” value [1, 10] was 16.4 mg and the “By-Interval Amount Ae(24-48)” value [1, 10] was 5.21 mg. For the same compound, the “By-Interval Percent fe(12-24)” value [1, 10] was 1.64%, the “Cumulative Amount Ae(0-12)” value [1, 10] was 482 mg and the “Cumulative Amount Ae(0-24)” value [1, 10] was 498 mg. For the same compound, the “Cumulative Amount Ae(0-last)” value [1, 10] was 504 mg, the “By-Interval Amount Ae(0-6)” value [1, 11] was 421 mg and the “By-Interval Amount Ae(6-12)” value [1, 11] was 56.1 mg. The “By-Interval Amount Ae(12-24)” value [1, 11] was 16.6 mg, the “By-Interval Amount Ae(24-48)” value [1, 11] was 5.03 mg and the “Cumulative Amount Ae(0-12)” value [1, 11] was 475 mg. For the same compound, the “Cumulative Amount Ae(0-24)” value [1, 11] was 496 mg, the “Cumulative Amount Ae(0-last)” value [1, 11] was 501 mg and the “Finding at the highest dose” value ([2]; 150 mg/kg/dose TID for seven days) was “severe GI effects”. The “Finding at 10 mg/kg/dose TID” value ([2]; 10 mg/kg) was “diarrhea was still apparent”.
